Measurements: US20100204246A1, “5-AMINOPYRAZOL-3-YL-3H-IMIDAZO (4,5-B) PYRIDINE DERIVATIVES AND THEIR USE FOR THE TREATMENT OF CANCER” (AstraZeneca AB, priority 2007, published 2010)

Each compound was assayed against T1, human JAK2 (Homo sapiens, UniProt O60674) (assay: JAK2 kinase assay (Alphascreen, phosphorylation of biotinylated peptide substrate)). Settings: 150pM JAK2 enzyme, 30 μM ATP, 60 minutes, room temperature; read-out: IC50 (JAK inhibitory activity).
T1 construct: human JAK2, amino acids 808-end; His6 (C); purchased Upstate Biotechnology; host or cells: baculovirus in Sf21 cells
T1 sequence (O60674 808-1132 limits assumed): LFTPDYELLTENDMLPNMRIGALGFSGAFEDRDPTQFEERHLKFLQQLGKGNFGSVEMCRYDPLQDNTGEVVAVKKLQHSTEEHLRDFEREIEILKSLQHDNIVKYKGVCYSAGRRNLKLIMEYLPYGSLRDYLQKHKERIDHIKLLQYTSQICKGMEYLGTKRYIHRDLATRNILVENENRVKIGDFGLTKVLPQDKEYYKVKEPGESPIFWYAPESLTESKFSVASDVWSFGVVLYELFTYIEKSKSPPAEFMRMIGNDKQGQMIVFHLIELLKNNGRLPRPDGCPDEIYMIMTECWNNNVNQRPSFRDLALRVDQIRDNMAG
Type: biochemical
Experimental: JAK2 kinase activity was determined by measuring the kinase's ability to phosphorylate synthetic tyrosine residues within a generic polypeptide substrate using an Amplified Luminescent Proximity Assay (Alphascreen) technology (PerkinElmer, 549 Albany Street, Boston, Mass.).
To measure JAK2 kinase activity, a commercially available purified enzyme may be used. The enzyme may be a C-terminal His6-tagged, recombinant, human JAK2, amino acids 808-end, (Genbank Accession number NM 004972) expressed by baculovirus in Sf21 cells (Upstate Biotechnology MA). After incubation of the kinase with a biotinylated substrate and adenosine triphosphate (ATP) for 60 minutes at room temperature, the kinase reaction may be stopped by the addition of 30 mM ethylenediaminetetraacetic acid (EDTA). The reaction may be performed in 384 well microtitre plates and the reaction products may be detected with the addition of streptavidin coated Donor Beads and phosphotyrosine-specific antibodies coated Acceptor Beads using the EnVision Multilabel Plate Reader after an overnight incubation at room temperature.

Question: CCOc1cc(Nc2nc3c(cc2F)ncn3[C@@H](C)c2ccc(F)cn2)n[nH]1 [Example 3, N-(5-Ethoxy-1H-pyrazol-3-yl)-6-fluoro-3-[(1S)-1-(5-fluoropyridin-2-yl)-ethyl]-3H-imidazo[4,5-b]pyridin-5-amine] was tested. Which IC50 did it give?
Answer: 11 nM

The compounds below were run against T2, human Trk A kinase (Homo sapiens, UniProt P04629) (assay: Trk A kinase assay (Alphascreen, phosphorylation of PolyEY-biotin substrate)). Settings: 0.838 ng/ml Trk A, 70 μM ATP, 20 minutes, room temperature; read-out: IC50 (Trk inhibitory activity).
T2 construct: HIS; made in house; host or cells: SF9 cells
T2 sequence (P04629 442-796): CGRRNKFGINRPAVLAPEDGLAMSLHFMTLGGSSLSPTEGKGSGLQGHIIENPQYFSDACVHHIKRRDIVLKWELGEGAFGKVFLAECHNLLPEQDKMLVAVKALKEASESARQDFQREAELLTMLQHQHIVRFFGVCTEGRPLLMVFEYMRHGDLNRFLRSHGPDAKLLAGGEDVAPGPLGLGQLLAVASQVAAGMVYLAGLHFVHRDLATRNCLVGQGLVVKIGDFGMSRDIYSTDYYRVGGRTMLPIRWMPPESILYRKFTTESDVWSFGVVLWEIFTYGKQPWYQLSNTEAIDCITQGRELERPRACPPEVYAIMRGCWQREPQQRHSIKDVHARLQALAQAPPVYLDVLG
Type: biochemical
Experimental: Trk A kinase activity was determined by measuring the kinase's ability to phosphorylate synthetic tyrosine residues within a generic polypeptide substrate using an Amplified Luminescent Proximity Assay (Alphascreen) technology (PerkinElmer, 549 Albany Street, Boston, Mass.).
To measure Trk A kinase activity, the intracellular domain of a HIS-tagged human Trk A kinase (amino acids 442-796 of Trk A, Swiss-Prot Primary Accession Number P04629) may be expressed in SF9 cells and purified using standard nickel column chromatography. After incubation of the kinase with a biotinylated substrate and adenosine triphosphate (ATP) for 20 minutes at room temperature, the kinase reaction may be stopped by the addition of 30 mM ethylenediaminetetraacetic acid (EDTA). The reaction may be performed in 384 well microtitre plates and the reaction products may be detected with the addition of strepavidin coated Donor Beads and phosphotyrosine-specific antibodies coated Acceptor Beads using the EnVision Multilabel Plate Reader after an overnight incubation at room temperature.

Question: C[C@@H](c1ccc(F)cn1)n1cnc2ccc(Nc3cc(C4CC4)[nH]n3)nc21 [Example 2, N-(5-Cyclopropyl-1H-pyrazol-3-yl)-3-[(1S)-1-(5-fluoropyridin-2-yl)ethyl]-3H-imidazo[4,5-b]pyridin-5-amine] was tested. Which IC50 did it give?
Answer: 23 nM

Question: Which IC50 does the source give for CCOc1cc(Nc2nc3c(cc2F)ncn3[C@@H](C)c2ccc(F)cn2)n[nH]1 [Example 3, N-(5-Ethoxy-1H-pyrazol-3-yl)-6-fluoro-3-[(1S)-1-(5-fluoropyridin-2-yl)-ethyl]-3H-imidazo[4,5-b]pyridin-5-amine] here?
Answer: 3 nM

Question: Which IC50 does the source give for COc1cc(Nc2nc3c(cc2F)ncn3[C@@H](C)c2ncc(F)cn2)n[nH]1 [Example 7, 6-Fluoro-3-[(1S)-1-(5-fluoropyrimidin-2-yl)-ethyl]-N-(5-methoxy-1H-pyrazol-3-yl)-3H-imidazo[4,5-b]pyridin-5-amine] here?
Answer: 3 nM

Question: For Cc1cc(Nc2nc3c(cc2F)ncn3[C@@H](C)c2ccc(F)cn2)n[nH]1 [Example 13, 6-Fluoro-3-[(1S)-1-(5-fluoropyridin-2-yl)ethyl]-N-(5-methyl-1H-pyrazol-3-yl)-3H-imidazo[4,5-b]pyridin-5-amine], which IC50 is on record?
Answer: 21 nM

Question: CC(C)Oc1cc(Nc2nc3c(cc2F)ncn3[C@@H](C)c2ccc(F)cn2)n[nH]1 [Example 4, 6-Fluoro-3-[(1S)-1-(5-fluoropyridin-2-yl)-ethyl]-N-(5-isopropoxy-1H-pyrazol-3-yl)-3H-imidazo[4,5-b]pyridin-5-amine] was tested. Which IC50 did it give?
Answer: 3 nM

Question: For Cc1cc(Nc2nc3c(cc2F)nc(C)n3Cc2ncc(F)cc2F)n[nH]1 [Example 18, 3-[(3,5-Difluoropyridin-2-yl)methyl]-6-fluoro-2-methyl-N-(5-methyl-1H-pyrazol-3-yl)-3H-imidazo[4,5-b]pyridin-5-amine], which IC50 is on record?
Answer: 393 nM

Question: Which IC50 does the source give for Cc1cc(Nc2nc3c(cc2F)ncn3Cc2ncc(F)cc2F)n[nH]1 [Example 17, 3-[(3,5-Difluoropyridin-2-yl)methyl]-6-fluoro-N-(5-methyl-1H-pyrazol-3-yl)-3H-imidazo[4,5-b]pyridin-5-amine] here?
Answer: 283 nM

Question: For CCOc1cc(Nc2nc3c(cc2F)ncn3[C@@H](CO)c2ccc(F)cn2)n[nH]1 [Example 10, (2R)-2-{5-[(5-Ethoxy-1H-pyrazol-3-yl)-amino]-6-fluoro-3H-imidazo[4,5-b]pyridin-3-yl}-2-(5-fluoropyridin-2-yl)-ethanol], which IC50 is on record?
Answer: 3 nM

Question: With Cc1cc(Nc2nc3c(cc2F)nc(C)n3[C@@H](C)c2ncc(F)cn2)n[nH]1 [Example 15, 6-Fluoro-3-[(1S)-1-(5-fluoropyrimidin-2-yl)ethyl]-2-methyl-N-(5-methyl-1H-pyrazol-3-yl)-3H-imidazo[4,5-b]pyridin-5-amine] as the compound, how does the IC50 read?
Answer: 9350 nM

Question: For COc1cc(Nc2nc3c(cc2F)ncn3[C@@H](CO)c2ccc(F)cn2)n[nH]1 [Example 9, (2R)-2-{6-Fluoro-5-[(5-methoxy-1H-pyrazol-3-yl)-amino]-3H-imidazo[4,5-b]pyridin-3-yl}-2-(5-fluoropyridin-2-yl)-ethanol], which IC50 is on record?
Answer: 3 nM

Question: How did the IC50 turn out when COc1cc(Nc2nc3c(cc2F)ncn3[C@@H](C)c2ccc(F)cn2)n[nH]1 [Example 11, 6-Fluoro-3-[(1S)-1-(5-fluoropyridin-2-yl)-ethyl]-N-(5-methoxy-1H-pyrazol-3-yl)-3H-imidazol-[4,5-b]pyridin-5-amine] was run?
Answer: 3 nM

Question: How did the IC50 turn out when C[C@@H](c1ncc(F)cn1)n1cnc2cc(F)c(Nc3cc(C4CC4)[nH]n3)nc21 [Example 5, N-(5-Cyclopropyl-1H-pyrazol-3-yl)-6-fluoro-3-[(1S)-1-(5-fluoropyrimidin-2-yl)-ethyl]-3H-imidazo[4,5-b]pyridin-5-amine] was run?
Answer: 3 nM

Question: How did the IC50 turn out when Cc1cc(Nc2nc3c(cc2F)[nH]c(=O)n3[C@@H](C)c2ncc(F)cn2)n[nH]1 [Example 14, 6-Fluoro-3-[(1S)-1-(5-fluoropyrimidin-2-yl)ethyl]-5-[(5-methyl-1H-pyrazol-3-yl)amino]-1,3-dihydro-2H-imidazo[4,5-b]pyridin-2-one] was run?
Answer: 3300 nM

Question: For Cc1cc(Nc2nc3c(cc2F)ncn3[C@@H](C)c2ncc(F)cn2)n[nH]1 [Example 12, 6-Fluoro-3-[(1S)-1-(5-fluoropyrimidin-2-yl)ethyl]-N-(5-methy 1-1H-pyrazol-3-yl)-3H-imidazo[4,5-b]pyridin-5-amine], which IC50 is on record?
Answer: 66 nM

Question: How did the IC50 turn out when C[C@@H](c1ccc(F)cn1)n1cnc2cc(F)c(Nc3cc(C4CC4)[nH]n3)nc21 [Example 1, N-(5-Cyclopropyl-1H-pyrazol-3-yl)-6-fluoro-3-[(1S)-1-(5-fluoropyridin-2-yl)-ethyl]-3H-imidazo[4,5-b]-pyridin-5-amine] was run?
Answer: 3 nM

Question: Which IC50 does the source give for CC(C)Oc1cc(Nc2nc3c(cc2F)ncn3[C@@H](CO)c2ccc(F)cn2)n[nH]1 [Example 8, (2R)-2-{6-Fluoro-5-[(5-isopropoxy-1H-pyrazol-3-yl)-amino]-3H-imidazo[4,5-b]pyridine-3-yl}-2-(5-fluoropyridin-2-yl)-ethanol] here?
Answer: 3 nM

Question: Cc1cc(Nc2nc3c(cc2F)ncn3[C@@H](CO)c2ccc(F)cn2)n[nH]1 [Example 16, (2R)-2-{6-Fluoro-5-[(5-methyl-1H-pyrazol-3-yl)amino]-3H-imidazo[4,5-b]pyridin-3-yl}-2-(5-fluoropyridin-2-yl)ethanol] was tested. Which IC50 did it give?
Answer: 73 nM

Question: With CC(C)Oc1cc(Nc2nc3c(cc2F)ncn3[C@@H](C)c2ncc(F)cn2)n[nH]1 [Example 6, 6-Fluoro-3-[(1S)-1-(5-fluoropyrimidin-2-yl)-ethyl]-N-(5-isopropoxy-1H-pyrazol-3-yl)-3H-imidazo[4,5-b]pyridin-5-amine] as the compound, how does the IC50 read?
Answer: 3 nM
